Data from patent publication US20240240224A1, “FLUORESCENT D-TYPE AMINO ACID METABOLISM MARKER-BASED METHOD FOR DETECTING ANTIBACTERIAL DRUG SENSITIVITY TEST” (priority 2020, published 2024).
Converted amounts (≈) assume the structure as drawn.

What was measured:
K. pneumoniae Kp6 [1] = experiment: BMD susceptibility test; format: cell-based, Klebsiella pneumoniae; settings: unit assumed
K. pneumoniae Kp9 [2] = experiment: BMD susceptibility test; format: cell-based, Klebsiella pneumoniae; settings: unit assumed
S. aureus Sa22 = experiment: FaAST (FDAA metabolic labeling method); format: cell-based, Staphylococcus aureus; settings: unit assumed
Procedure: (§1) Take the colony to be tested that has been cultured overnight on the plate and fully mix it in normal saline to make a uniform bacterial solution. Dilute it into Cation-Adjusted Mueller Hinton Broth (CAMHB) culture medium to make a bacterial solution with OD600=0.05. • 2. Add 45 μl antibiotic solutions of different concentrations to 96-well plates (see Table 1 for antibiotic concentration gradient settings). • 3. Add 50 μl of the bacterial solution prepared in step 1 to the 96-well plate and mix well. • 4. Add 5 μl of 10 mM Cy5-DAA probe (final concentration 0.15 mM, see FIG. 1 for its structure) into each well, mix well, and cultivate in dark for 2 hours. • 5. Add 200 μl After PBS solution is diluted, the fluorescence intensity of each sample is detected by flow cytometry. The flow detection results are shown in FIG. 4-5, showing the curve of the change of antibiotic concentration gradient and fluorescence intensity. The MIC (minimum inhibitory concentration) can be obtained by referring to this curve.
(§2) Bacteria with antibiotic resistance are shown in bold in the following table.

S. aureus ATCC29213 = experiment: FaAST (FDAA metabolic labeling method); format: cell-based, Staphylococcus aureus; settings: unit assumed
Procedure: as §1, §2

S. aureus Sa23 = experiment: FaAST (FDAA metabolic labeling method); format: cell-based, Staphylococcus aureus; settings: unit assumed
Procedure: as §1, §2

A. baumannii Ab16 = experiment: FaAST (FDAA metabolic labeling); format: cell-based, Acinetobacter baumannii; settings: unit assumed
In short: (§3)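 Bacteria at OD600=0.05 in CAMHB mixed with antibiotic dilutions plus Cy5-DAA probe at 0.15 mM final, then incubated 2 h in the dark. Cell-wall labeling fluorescence measured by flow cytometry after PBS dilution.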

[3] = tested on: Acinetobacter baumannii ABA16; experiment: VITEK drug sensitivity test; format: cell-based; settings: unit assumed
E. coli Ec13 = experiment: FaAST (FDAA metabolic labeling); format: cell-based, Escherichia coli; settings: unit assumed
In short: as §3

[4] = tested on: alveolar lavage fluid sample 0219, A. baumannii; experiment: BMD susceptibility test of patient alveolar lavage fluid; format: cell-based, Acinetobacter baumannii; settings: unit assumed
Excerpt: (§4) The results of antimicrobial susceptibility test of alveolar lavage fluid of seven patients using FDAA and BMD methods are shown in the following table. The drug-resistant bacteria are shown in bold.

[5] = tested on: alveolar lavage fluid sample 0130, A. baumannii; experiment: as above; format: cell-based, Acinetobacter baumannii; settings: unit assumed
Excerpt: as §4

[6] = tested on: alveolar lavage fluid sample 0206, A. baumannii; experiment: as above; format: cell-based, Acinetobacter baumannii; settings: unit assumed
Excerpt: as §4

K. pneumoniae Kp9 [7] = experiment: FaAST (FDAA metabolic labeling); format: cell-based, Klebsiella pneumoniae; settings: unit assumed
In short: as §3

K. pneumoniae Kp6 [8] = experiment: FaAST (FDAA metabolic labeling); format: cell-based, Klebsiella pneumoniae; settings: unit assumed
In short: as §3

Ec ATCC 25922 = experiment: BMD susceptibility test; format: cell-based, Escherichia coli; settings: unit assumed
[9] = tested on: bacteria contained in alveolar lavage fluid; experiment: FDAA metabolic labeling susceptibility test of alveolar lavage fluid (Cy5-DAA probe); format: cell-based; settings: alveolar lavage fluid of patients with hospital acquired pneumonia, 2 hours
Procedure: (§5) With reference to the flow chart of the rapid detection method of antimicrobial susceptibility test based on FDAA metabolic markers shown in FIG. 3, FDAA is used for the detection of antimicrobial susceptibility test of alveolar lavage fluid. The specific experimental steps are as follows: • 1. Mix bronchoalveolar lavage fluid (BALF, 10 ml) of patients with hospital acquired pneumonia with cation regulated broth medium (CAMHB, 10 ml) of twice the concentration to prepare the bacterial fluid to be tested. • 2. Add 45 μl antibiotic solutions of different concentrations to the 96-well plate separately (see Table 1 for antibiotic concentration gradient settings). • 3. Add 50 μl of the bacterial solution prepared in step 1 to the 96-well plate and mix well. • 4. Add 5 μl of 10 mM Cy5-DAA probe (final concentration 0.15 mM, see FIG. 1 for its structure) into each well, mix well, and then cultivate in dark for 2 hours. • 5. Add 200 μl PBS solution for dilution, and then use flow cytometry to detect the fluorescence intensity of each sample.

[10] = tested on: Acinetobacter baumannii ABA19; experiment: VITEK drug sensitivity test; format: cell-based; settings: unit assumed
E. faecium Ef26 = experiment: FaAST (FDAA metabolic labeling method); format: cell-based, Enterococcus faecium; settings: unit assumed
In short: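 Bacteria at OD600=0.05 in CAMHB exposed to antibiotic concentration gradients with Cy5-DAA probe […], 2 h in the dark. Fluorescence read by flow cytometry after PBS dilution; MIC taken from the curve of fluorescence intensity versus antibiotic concentration.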

P. aeruginosa Pa2 = experiment: BMD susceptibility test; format: cell-based, Pseudomonas aeruginosa; settings: unit assumed
[11] = tested on: Pseudomonas aeruginosa PAE2; experiment: VITEK drug sensitivity test; format: cell-based; settings: unit assumed
[12] = tested on: alveolar lavage fluid sample 0219, A. baumannii; experiment: FaAST (FDAA) susceptibility test of patient alveolar lavage fluid; format: cell-based, Acinetobacter baumannii; settings: unit assumed
Procedure: as §5, §4

[13] = tested on: alveolar lavage fluid sample 0204, A. baumannii; experiment: as above; format: cell-based, Acinetobacter baumannii; settings: unit assumed
Procedure: as §5, §4

[14] = tested on: alveolar lavage fluid sample 0130, A. baumannii; experiment: as above; format: cell-based, Acinetobacter baumannii; settings: unit assumed
Procedure: as §5, §4

[15] = tested on: alveolar lavage fluid sample 0206, A. baumannii; experiment: as above; format: cell-based, Acinetobacter baumannii; settings: unit assumed
Procedure: as §5, §4

With `C[C@H]1COc2c(N3CCN(C)CC3)c(F)cc3c(=O)c(C(=O)O)cn1c23` [Levofloxacin, levofloxacin] the BMD (MIC) (K. pneumoniae Kp6 [1]) was no more than 0.25 µg/mL, the BMD (MIC) (K. pneumoniae Kp9 [2]) was 32 µg/mL and the FaAST (MIC) (S. aureus Sa22) was 32 µg/mL. It also gave a FaAST (MIC) (S. aureus ATCC29213) of 0.5 µg/mL, a FaAST (MIC) (S. aureus Sa23) of 1 µg/mL and a FaAST (MIC) (A. baumannii Ab16) of 32 µg/mL. The MIC, VITEK [3] was 16 µg/mL (≈ 44.3 µM), the FaAST (MIC) (E. coli Ec13) was 4 µg/mL and the BMD (MIC) [4] was 32 µg/mL. The BMD (MIC) [5] was 64 µg/mL, the BMD (MIC) [6] was 32 µg/mL and the FaAST (MIC) (K. pneumoniae Kp9 [7]) was 128 µg/mL. For the same compound, the FaAST (MIC) (K. pneumoniae Kp6 [8]) was 0.5 µg/mL, the BMD (MIC) (Ec ATCC 25922) was no more than 0.25 µg/mL and the “MIC, FDAA” value [9] was no less than 32 µg/mL. The MIC, VITEK [10] was no more than 0.25 µg/mL, the FaAST (MIC) (E. faecium Ef26) was 64 µg/mL and the BMD (MIC) (P. aeruginosa Pa2) was 0.5 µg/mL. For the same compound, the MIC, VITEK [11] was 0.5 µg/mL (≈ 1.38 µM), the FaAST (MIC) [12] was 64 µg/mL and the FaAST (MIC) [13] was 0.25 µg/mL. The FaAST (MIC) [14] was 64 µg/mL and the FaAST (MIC) [15] was 64 µg/mL.
